The text below walks through data of US11370798B2 (Vertex Pharmaceuticals Incorporated, priority 2012, dated 2022).

SMILES strings stand for the structures.

For the test, the system named is HCT116 colorectal cancer cells. Description: Cisplatin sensitization assay (96 h cell viability MTS).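 Further: Test-compound concentration that lowers the Cisplatin IC50 by a set fold.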 The format is cell-based. The following applies: compound and Cisplatin added simultaneously, Cisplatin sensitization value. The protocol: Compounds can be screened for their ability to sensitize HCT116 colorectal cancer cells to Cisplatin using a 96 h cell viability (MTS) assay. […] Compounds and Cisplatin are then both added simultaneously to the cell media in 2-fold serial dilutions from a top final concentration of 10 μM as a full matrix of concentrations in a final cell volume of 200 μl, and the cells are then incubated at 37° C. in 5% CO2. After 96 h, 40 μl of MTS reagent (Promega G358a) is added to each well and the cells are incubated for 1 h at 37° C. in 5% CO2.
Compounds with a Cisplatin sensitization value of <0.02 μM are marked with “+++.” Compounds with a Cisplatin sensitization value>0.02 μM but <0.2 μM are marked with “++.” Compounds with a Cisplatin sensitization value>0.2 μM but <5 μM are marked with “+.”
On to `Nc1nn2cc(F)cnc2c1C(=O)Nc1cnccc1N1CCN(C2CCOC2)CC1` (racemic) [I-N-19, (R,S)-2-amino-6-fluoro-N-(4-(4-(tetrahydrofuran-3-yl)piperazin-1-yl)pyridin-3-yl)pyrazolo[1,5-a]pyrimidine-3-carboxamide], for which the “Cisplatin Sensitization Assay” value was “+++ (Cisplatin sensitization value of <0.02 μM)”. The result for `N#CCc1cnc2c(C(=O)Nc3cnccc3OC3CCCNC3)c(N)nn2c1` (racemic) [I-O-2, (R,S)-2-amino-6-(cyanomethyl)-N-(4-(piperidin-3-yloxy)pyridin-3-yl)pyrazolo[1,5-a]pyrimidine-3-carboxamide] reads “++ (Cisplatin sensitization value>0.02 μM but <0.2 μM)”; that for `Nc1nn2cc(F)cnc2c1C(=O)Nc1cnccc1OC1CN2CCC1CC2` (racemic) [I-O-6, (R,S)-2-amino-6-fluoro-N-(4-(quinuclidin-3-yloxy)pyridin-3-yl)pyrazolo[1,5-a]pyrimidine-3-carboxamide], “+++ (Cisplatin sensitization value of <0.02 μM)”; that for `Nc1nn2cc(F)cnc2c1C(=O)Nc1cnccc1OC1CCOC1` (racemic) [I-O-15, (R,S)-2-amino-6-fluoro-N-(4-((tetrahydrofuran-3-yl)oxy)pyridin-3-yl)pyrazolo[1,5-a]pyrimidine-3-carboxamide], “+++ (Cisplatin sensitization value of <0.02 μM)”. `N#CCc1cnc2c(C(=O)Nc3cnccc3OC3CCOC3)c(N)nn2c1` (racemic) [I-O-37, (R,S)-2-amino-6-(cyanomethyl)-N-(4-((tetrahydrofuran-3-yl)oxy)pyridin-3-yl)pyrazolo[1,5-a]pyrimidine-3-carboxamide]: the “Cisplatin Sensitization Assay” value is on record as “+++ (Cisplatin sensitization value of <0.02 μM)”.

`Nc1nn2cc(F)cnc2c1C(=O)Nc1cnccc1O[C@@H]1CN2CCC1CC2` [Compound I-0-10, (S)-2-amino-6-fluoro-N-(4-(quinuclidin-3-yloxy)pyridin-3-yl)pyrazolo[1,5-a]pyrimidine-3-carboxamide]: the “Cisplatin Sensitization Assay” value was “+++ (Cisplatin sensitization value of <0.02 μM)”. The result for `Nc1nn2cc(F)cnc2c1C(=O)Nc1cnccc1OC1CCN(C2COC2)CC1` [Compound I-0-11, 2-amino-6-fluoro-N-(4-((1-(oxetan-3-yl)piperidin-4-yl)oxy)pyridin-3-yl)pyrazolo[1,5-a]pyrimidine-3-carboxamide] reads “+++ (Cisplatin sensitization value of <0.02 μM)”; that for `CN1CCC(c2ccncc2NC(=O)c2c(N)nn3cc(F)cnc23)CC1` [I-C-1, 2-amino-6-fluoro-N-(4-(1-methylpiperidin-4-yl)pyridin-3-yl)pyrazolo[1,5-a]pyrimidine-3-carboxamide], “++ (Cisplatin sensitization value>0.02 μM but <0.2 μM)”; that for `Cc1ccncc1NC(=O)c1c(N)nn2cc(Cl)cnc12` [I-C-2, 2-amino-6-chloro-N-(4-methylpyridin-3-yl)pyrazolo[1,5-a]pyrimidine-3-carboxamide], “++ (Cisplatin sensitization value>0.02 μM but <0.2 μM)”. Consider `Cc1ccncc1NC(=O)c1c(N)nn2cc(F)cnc12` [I-C-4, 2-amino-6-fluoro-N-(4-methylpyridin-3-yl)pyrazolo[1,5-a]pyrimidine-3-carboxamide], for which the “Cisplatin Sensitization Assay” value is “++ (Cisplatin sensitization value>0.02 μM but <0.2 μM)”. For `Nc1nn2cc(F)cnc2c1C(=O)Nc1cnccc1-c1ccccc1` [I-C-5, 2-amino-6-fluoro-N-(4-phenylpyridin-3-yl)pyrazolo[1,5-a]pyrimidine-3-carboxamide], the “Cisplatin Sensitization Assay” value was “+++ (Cisplatin sensitization value of <0.02 μM)”.

For the compound `N#CCc1cnc2c(C(=O)Nc3cnccc3-c3ccccc3)c(N)nn2c1` [I-C-6, 2-amino-6-(cyanomethyl)-N-(4-phenylpyridin-3-yl)pyrazolo[1,5-a]pyrimidine-3-carboxamide], the “Cisplatin Sensitization Assay” value is listed as “+++ (Cisplatin sensitization value of <0.02 μM)”. The result for `Nc1nn2cc(F)cnc2c1C(=O)Nc1cncc2c1CCNC2` [I-C-7, 2-amino-6-fluoro-N-(5,6,7,8-tetrahydro-2,7-naphthyridin-4-yl)pyrazolo[1,5-a]pyrimidine-3-carboxamide] reads “++ (Cisplatin sensitization value>0.02 μM but <0.2 μM)”; that for `CN1CCc2c(cncc2NC(=O)c2c(N)nn3cc(F)cnc23)C1` [I-C-8, 2-amino-6-fluoro-N-(7-methyl-5,6,7,8-tetrahydro-2,7-naphthyridin-4-yl)pyrazolo[1,5-a]pyrimidine-3-carboxamide], “+ (Cisplatin sensitization value>0.2 μM but <5 μM)”. Regarding `C[N+]1([O-])CCc2c(cncc2NC(=O)c2c(N)nn3cc(F)cnc23)C1` (stereo not shown) [I-C-9, 5-(2-amino-6-fluoropyrazolo[1,5-a]pyrimidine-3-carboxamido)-2-methyl-1,2,3,4-tetrahydro-2,7-naphthyridine 2-oxide], the “Cisplatin Sensitization Assay” value is “+ (Cisplatin sensitization value>0.2 μM but <5 μM)”. The result for `Nc1nn2cc(F)cnc2c1C(=O)Nc1cnccc1C1CCN(C2COC2)CC1` [I-C-10, 2-amino-6-fluoro-N-(4-(1-(oxetan-3-yl)piperidin-4-yl)pyridin-3-yl)pyrazolo[1,5-a]pyrimidine-3-carboxamide] reads “+++ (Cisplatin sensitization value of <0.02 μM)”; that for `Nc1nn2cc(Cl)cnc2c1C(=O)Nc1cnccc1C1CCN(C2COC2)CC1` [I-C-11, 2-amino-6-chloro-N-(4-(1-(oxetan-3-yl)piperidin-4-yl)pyridin-3-yl)pyrazolo[1,5-a]pyrimidine-3-carboxamide], “+++ (Cisplatin sensitization value of <0.02 μM)”. The result for `Nc1nn2cc(F)cnc2c1C(=O)Nc1cncc(F)c1C1=CCN(C2COC2)CC1` [I-C-12, 2-amino-6-fluoro-N-(5-fluoro-1′-(oxetan-3-yl)-1′,2′,3′,6′-tetrahydro-[4,4′-bipyridin]-3-yl)pyrazolo[1,5-a]pyrimidine-3-carboxamide] reads “+++ (Cisplatin sensitization value of <0.02 μM)”; that for `Nc1nn2cc(F)cnc2c1C(=O)Nc1cncc(F)c1C1CCN(C2COC2)CC1` [I-C-13, 2-amino-6-fluoro-N-(5-fluoro-4-(1-(oxetan-3-yl)piperidin-4-yl)pyridin-3-yl)pyrazolo[1,5-a]pyrimidine-3-carboxamide], “++ (Cisplatin sensitization value>0.02 μM but <0.2 μM)”; that for `CN1CCC(c2c(F)cncc2NC(=O)c2c(N)nn3cc(F)cnc23)CC1` [I-C-14, 2-amino-6-fluoro-N-(5-fluoro-4-(1-methylpiperidin-4-yl)pyridin-3-yl)pyrazolo[1,5-a]pyrimidine-3-carboxamide], “+ (Cisplatin sensitization value>0.2 μM but <5 μM)”. `Nc1nn2cc(F)cnc2c1C(=O)Nc1cnccc1-c1cccnc1` [I-C-15, N-([3,4′-bipyridin]-3′-yl)-2-amino-6-fluoropyrazolo[1,5-a]pyrimidine-3-carboxamide]: the “Cisplatin Sensitization Assay” value is reported as “++ (Cisplatin sensitization value>0.02 μM but <0.2 μM)”. For `CN1CCC(C(=O)N2CCC(c3ccncc3NC(=O)c3c(N)nn4cc(F)cnc34)CC2)CC1` [I-C-16, 2-amino-6-fluoro-N-(4-(1-(1-methylpiperidine-4-carbonyl)piperidin-4-yl)pyridin-3-yl)pyrazolo[1,5-a]pyrimidine-3-carboxamide], the “Cisplatin Sensitization Assay” value is on record as “+ (Cisplatin sensitization value>0.2 μM but <5 μM)”. Consider `CN1CCN(C(=O)N2CCC(c3ccncc3NC(=O)c3c(N)nn4cc(F)cnc34)CC2)CC1` [I-C-17, 2-amino-6-fluoro-N-(4-(1-(4-methylpiperazine-1-carbonyl)piperidin-4-yl)pyridin-3-yl)pyrazolo[1,5-a]pyrimidine-3-carboxamide], for which the “Cisplatin Sensitization Assay” value is listed as “++ (Cisplatin sensitization value>0.02 μM but <0.2 μM)”. The result for `Nc1nn2cc(F)cnc2c1C(=O)Nc1cnccc1C1CCN(C(=O)C23CCN(CC2)CC3)CC1` [I-C-18, 2-amino-6-fluoro-N-(4-(1-(quinuclidine-4-carbonyl)piperidin-4-yl)pyridin-3-yl)pyrazolo[1,5-a]pyrimidine-3-carboxamide] reads “+ (Cisplatin sensitization value>0.2 μM but <5 μM)”. The result for `CN1CCN(C(=O)c2ccc(-c3ccncc3NC(=O)c3c(N)nn4cc(F)cnc34)cn2)CC1` [I-C-19, 2-amino-6-fluoro-N-(6-(4-methylpiperazine-1-carbonyl)-[3,4′-bipyridin]-3′-yl)pyrazolo[1,5-a]pyrimidine-3-carboxamide] reads “++ (Cisplatin sensitization value>0.02 μM but <0.2 μM)”. The result for `Cc1ncccc1-c1ccncc1NC(=O)c1c(N)nn2cc(F)cnc12` [I-C-20, 2-amino-6-fluoro-N-(2-methyl-[3,4′-bipyridin]-3′-yl)pyrazolo[1,5-a]pyrimidine-3-carboxamide] reads “+++ (Cisplatin sensitization value of <0.02 μM)”; that for `CN1CCN(c2ccc(-c3ccncc3NC(=O)c3c(N)nn4cc(F)cnc34)cn2)CC1` [I-C-21, 2-amino-6-fluoro-N-(6-(4-methylpiperazin-1-yl)-[3,4′-bipyridin]-3′-yl)pyrazolo[1,5-a]pyrimidine-3-carboxamide], “+++ (Cisplatin sensitization value of <0.02 μM)”; that for `Cc1ccc(-c2ccncc2NC(=O)c2c(N)nn3cc(F)cnc23)cn1` [I-C-22, 2-amino-6-fluoro-N-(6-methyl-[3,4′-bipyridin]-3′-yl)pyrazolo[1,5-a]pyrimidine-3-carboxamide], “++ (Cisplatin sensitization value>0.02 μM but <0.2 μM)”.
